What was measured:
Assay type in all cases: in vivo
[1] = test system: Penicillium digitatum (Pd); assay: Antifungal activity of vapor against Penicillium digitatum (Pd) in wounded, infected mandarins; details: for effect on Pd mold: Example 5, assessed after 6 days; for infected mandarins: Example 6
mold = assay: AITC vapor against mold growth on produce in an airtight bin (general description)
Procedure: The plurality of produce items is contacted with the antimicrobial agent for a length of time in a range of 1 minute to 100 hours (e.g., 10 minutes to 1 hour). The length of time is dependent on a variety of factors, such as type of produce, target pathogen, and the degree to which the enclosure is sealed. Examples include exposure times between 15 minutes and 96 hours for allyl isothiocyanate (AITC) in an airtight bin. […] Lower antimicrobial agent concentrations with longer exposure times or higher antimicrobial concentrations with shorter exposure times can also be used. For example, the plurality of produce items is contacted with the antimicrobial agent for a length of time in a range of 15 minute to 72 hours.
A concentration of the antimicrobial agent in the headspace of the enclosure is typically in a range of about 20 parts per million by volume (ppmv) to about 5000 ppmv (e.g., about 550 ppmv to about 4800 ppmv, or about 25 ppmv to about 1250 ppmv). Depending on type of produce and exposure time in the enclosure, antimicrobial agent concentrations greater than about 2200 ppmv can sometimes damage the produce. […] In some embodiments, the antimicrobial agent is provided in a concentration to the enclosure in a headspace at least about 1200 ppmv, at least about 1250 ppmv, or about 1250 ppmv to about 5000 ppmv, or about 1250 ppmv to about 4900 ppmv.

[2] = test system: non-Pd latent fungal infection; assay: AITC vapor against non-Pd latent fungal infection in mandarins; details: Example 5; 125 μL (730 ppm), 1 hour exposure
Procedure: Example 5. The antifungal activity of a range of AITC vapor exposure times was tested to determine the effects against Pd in mandarins. All samples were wounded by puncturing with a screw. Mandarins were infected by dispensing 1000 Pd spores suspended in 10 μL of water in the wound. The fruit was then placed in an airtight container, 125 μL of AITC was dispensed onto a Whatman filter paper disc, the disc suspended in front of a battery-powered fan, and the container closed for 15 minutes to 2 hours. The test groups were then left at ambient temperature, high humidity, and assessed for Pd mold after 6 days. The test groups consisted of mandarins that were: uninfected and untreated; infected and untreated; infected and treated with 0.5 g/L imazalil; infected, treated with 125 μL of AITC on the filter paper, and exposed to the vapor for 15 minutes, 30 minutes, 1 hour, and 2 hours. […] A non-Pd latent fungal infection confounded results for the imazalil control and the 1 hour AITC treatment. […] A 30 minute exposure to an AITC vapor concentration of 730 ppm appeared to either substantially prevent mold infection or reduce the severity of infection. Longer exposure time increased the antifungal efficacy. […] Longer exposure times were effective at largely eliminating these pathogens.

SMILES: C=CCN=C=S [AITC, allyl isothiocyanate]
- inhibition of fungal growth (Pd) ([1]; Example 2, mandarins, 72 hours vapor of 3 mL): approximately 100%
- Pd mold growth ([1]; Example 4, doses of 125 μL, 250 μL & 500 μL, airtight container, 18 hours, 6 days): substantially prevented the growth mold
- effect on Pd mold ([1]; 125 μL (730 ppm), 30 min exposure): greatly reduced severity of Pd mold infection
- effect on Pd mold ([1]; 125 μL, 1 hour exposure): greatly reduced severity and incidence of Pd mold
- infected mandarins ([1]; 125 μL, 30 minutes, treated after 24 hours): 8.3%
- infected mandarins ([1]; 125 μL, 30 minutes, treated after 48 hours): 25%
- infected mandarins ([1]; 125 μL, 30 minutes, treated after 72 hours): 16.7%
- infected mandarins ([1]; 125 μL, 30 minutes, treated after 96 hours): 81.6%
- infected mandarins ([1]; 125 μL, 30 minutes, treated immediately after infection (0 hours)): 58.3%
- effect on Pd infection at lower dose ([1]; Example 19, 62.5 μL (50% of the minimum inhibitory concentration), 30 minutes): tends to reduce the severity of infection, but not eliminate the incidence of infection
- mold growth on the produce (mold; AITC concentration of 1000 ppm, exposure time of 15 minutes, airtight bin): slowed mold growth on the produce
- efficacy against mold on the produce (mold; AITC concentration of 1000 ppm, exposure time of 30 min or longer): good efficacy
- effect on mold growth (mold; AITC concentrations in a range of 550 ppmv to 4800 ppmv): some inhibitory effect on mold growth
- effect on mold growth (mold; AITC concentrations over 1000 ppmv): tended to be completely inhibitory
- response of latent pathogens to AITC vapor [2]: substantially resistant to AITC vapor

Reference: patent US20230292776A1, “GAS PHASE TREATMENT OF PRODUCE” (priority 2022, published 2023)
